Results reported in patent US20260103465A1, “GLYCOGEN SYNTHASE KINASE 3 INHIBITORS AND USES THEREOF” (The Broad Institute, Inc., priority 2023, published 2026).
Where two headings read alike, the source gives them in different places.

Key:
[1] = test system: MDR1-MDCK cell monolayers; assay: MDR1/MDCK permeability assay; assay type: in vitro ADME; details: for MDCK Permeability (MDR1-MDCK); Mean; Papp(A-B) (10^−6 cm/s): A to B; for MDCK Permeability (MDR1-MDCK); Mean; Papp(B-A) (10^−6 cm/s): B to A; for MIDCK Permeability (MDR1-MDCK); Mean; P. Ratio(B-A/A-B) Efflux Ratio / MDCK Permeability (MDR1-MDCK); Mean; P. Ratio(B-A/A-B) Efflux Ratio: Papp B-A/A-B
Method in brief: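 Confluent MDR1-MDCK monolayers (7–11 days old), compound dosed at 5 μM in HBSSg (≤1% DMSO) apically or basolaterally, pH 7.4 both sides, receiver with 1% BSA, N=2. Both sides sampled at 120 min and quantified by LC-MS/MS; Papp in each direction, efflux ratio B-A/A-B and recovery reported.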

[2] = Human liver microsomal stability; assay type: in vitro ADME; details: human liver microsomes
Method in brief: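 Compound incubated at 1 µM with human liver microsomes for 60 min at 37 °C, in duplicate. Percent remaining derived from compound level at 60 min relative to 0 min. Controls: microsomes with NADPH and no compound; compound with microsomes lacking NADPH.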

[3] = target: T1, GSK3b (GST-full length GSK3b) (Homo sapiens, UniProt P49841); assay: GSK3b TR-FRET kinase inhibition assay; assay type: biochemical
T1 construct: GST-full length GSK3b: [SignalChem G08-9G]; purchased SignalChem G08-9G
Method in brief: (§1)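 GST-tagged full-length human kinase (1 nM), pre-incubated 30 min with compound, then reacted 100 min at ambient temperature at pH 7.5 with 200 nM biotinylated phospho-S645 glycogen synthase 631–650 peptide and ATP at 2 μM–1 mM. After EDTA quench, Tb-pSer641 antibody/streptavidin-d2 TR-FRET 665/615 ratio fitted for IC50.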

[4] = target: T2, GSK3a (GST-full length GSK3a) (Homo sapiens, UniProt P49840); assay: GSK3a TR-FRET kinase inhibition assay; assay type: biochemical
T2 construct: GST-full length GSK3a [SignalChem G08-10G]; purchased SignalChem G08-10G
Method in brief: as §1

[5] = 1 mM ATP, Table 3, read-out: GSK3b TR-FRET 1 mM ATP Average IC50
[6] = 1 mM ATP, Table 3, read-out: GSK3a TR-FRET 1 mM ATP Average IC50
[7] = 2 μM ATP, read-out: GSK3β TR-FRET 2 μM ATP GMean IC50
[8] = 4 μM ATP, read-out: GSK3α TR-FRET 4 μM ATP GMean IC50
[9] = 1 mM ATP, Table 4, read-out: GSK3β TR-FRET 1 mM ATP GMean IC50
[10] = 1 mM ATP, Table 4, read-out: GSK3α TR-FRET 1 mM ATP GMean IC50
[11] = 10 μM ATP, read-out: GSK3b 10 μM ATP Average IC50
[12] = 100 μM ATP, read-out: GSK3b 100 μM ATP Average IC50
[13] = 10 μM ATP, read-out: GSK3a 10 μM ATP Average IC50
[14] = 100 μM ATP, read-out: GSK3a 100 μM ATP Average IC50

T1 sequence (P49841 whole entry): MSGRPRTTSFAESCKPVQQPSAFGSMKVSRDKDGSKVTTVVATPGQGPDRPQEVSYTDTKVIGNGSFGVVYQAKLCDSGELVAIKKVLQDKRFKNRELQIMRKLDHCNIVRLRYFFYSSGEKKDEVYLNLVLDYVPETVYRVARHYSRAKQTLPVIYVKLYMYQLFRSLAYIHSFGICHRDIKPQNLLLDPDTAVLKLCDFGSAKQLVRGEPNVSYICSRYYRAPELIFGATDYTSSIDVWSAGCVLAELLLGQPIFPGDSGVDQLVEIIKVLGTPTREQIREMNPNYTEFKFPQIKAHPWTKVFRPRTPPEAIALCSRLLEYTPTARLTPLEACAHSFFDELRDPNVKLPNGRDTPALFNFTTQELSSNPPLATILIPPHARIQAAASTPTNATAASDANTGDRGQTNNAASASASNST
T2 sequence (P49840 whole entry): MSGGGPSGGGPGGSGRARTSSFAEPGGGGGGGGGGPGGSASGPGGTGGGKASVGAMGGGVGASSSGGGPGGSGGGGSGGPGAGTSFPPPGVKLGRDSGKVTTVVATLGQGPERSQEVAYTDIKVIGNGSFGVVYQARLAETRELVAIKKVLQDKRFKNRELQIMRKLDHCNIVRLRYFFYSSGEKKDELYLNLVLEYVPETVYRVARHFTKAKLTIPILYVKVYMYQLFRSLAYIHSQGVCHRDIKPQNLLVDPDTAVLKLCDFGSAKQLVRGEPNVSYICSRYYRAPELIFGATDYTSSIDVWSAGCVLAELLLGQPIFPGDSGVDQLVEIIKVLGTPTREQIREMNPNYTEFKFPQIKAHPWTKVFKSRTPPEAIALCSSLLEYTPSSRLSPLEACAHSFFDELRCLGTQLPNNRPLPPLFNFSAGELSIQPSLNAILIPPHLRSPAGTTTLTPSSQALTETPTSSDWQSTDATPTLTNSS

Compound	MDCK Permeability (MDR1-MDCK); Mean; Papp(A-B) (10^−6 cm/s) ([1]; Table 3)	MDCK Permeability (MDR1-MDCK); Mean; Papp(B-A) (10^−6 cm/s) ([1]; Table 3)	MIDCK Permeability (MDR1-MDCK); Mean; P. Ratio(B-A/A-B) Efflux Ratio ([1]; Table 3)	Microsome Stability (Human) (DMPK_BIIB); Mean; in vitro t1/2 ([2]; Table 3)	IC50 [3, 5]	IC50 [4, 6]	MDCK Permeability (MDR1-MDCK); Mean; Papp(A-B) (10^−6 cm/s) ([1]; Table 4)	MDCK Permeability (MDR1-MDCK); Mean; Papp(B-A) (10^−6 cm/s) ([1]; Table 4)	MDCK Permeability (MDR1-MDCK); Mean; P. Ratio(B-A/A-B) Efflux Ratio ([1]; Table 4)	Microsome Stability (Human) (DMPK_BIIB); Mean; in vitro t1/2 ([2]; Table 4)	IC50 [3, 7]	IC50 [4, 8]	IC50 [3, 9]	IC50 [4, 10]	IC50 [3, 11]	IC50 [3, 12]	IC50 [4, 13]	IC50 [4, 14]
CC1(C)CC(=O)C2=C(C1)Nc1ncc(C(F)(F)F)cc1C2(C)c1ccccc1 (single isomer, unassigned) [Compound 128B]	20 10^−6 cm/s	10 10^−6 cm/s	0.53	>145 min	1000 to 5000 nM	1000 to 5000 nM	–	–	–	–	–	–	–	–	–	–	–	–
CCC1(c2cccc(-c3c(C)nn(C)c3C)c2)C2=C(CC(C)(C)CC2=O)Nc2ncccc21 (single isomer, unassigned) [Compound 150B]	–	–	–	–	–	–	2.9 10^−6 cm/s	29 10^−6 cm/s	9.9	2.7 min	≤ 100 nM	≤ 100 nM	1000 to 5000 nM	100 to 1000 nM	–	–	–	–
CCC1(c2cccc(-c3c(F)cncc3OC)c2)C2=C(CC(C)(C)CC2=O)Nc2ncccc21 (single isomer, unassigned) [Compound 154A]	15 10^−6 cm/s	9.5 10^−6 cm/s	0.62	6.4 min	–	–	–	–	–	–	> 5000 nM	> 5000 nM	–	–	–	–	–	–
CCC1(c2ccccc2)C2=C(CC(C)(C)CC2=O)Nc2ncc(F)cc21 (single isomer, unassigned) [Compound 114A]	23 10^−6 cm/s	16 10^−6 cm/s	0.68	49 min	1000 to 5000 nM	100 to 1000 nM	10 10^−6 cm/s	20 10^−6 cm/s	2.0	37 min	–	–	–	–	≤ 100 nM	≤ 100 nM	≤ 100 nM	≤ 100 nM
CC(C)(C)Cc1cnc2c(c1)C(C)(c1ccccc1)C1=C(CC(C)(C)CC1=O)N2 (single isomer, unassigned) [Compound 129B]	1.8 10^−6 cm/s	1.0 10^−6 cm/s	0.59	1.1 min	5000 to 20000 nM	5000 to 20000 nM	–	–	–	–	–	–	–	–	5000 to 20000 nM	20000 to 60000 nM	20000 to 60000 nM	–
CCC1(c2cccc(-c3cncn3C(C)C)c2)C2=C(CC(C)(C)CC2=O)Nc2ncccc21 (single isomer, unassigned) [Compound 149A]	–	–	–	16 min	100 to 1000 nM	100 to 1000 nM	2.3 10^−6 cm/s	41 10^−6 cm/s	18	9.9 min	≤ 100 nM	≤ 100 nM	100 to 1000 nM	≤ 100 nM	≤ 100 nM	≤ 100 nM	≤ 100 nM	≤ 100 nM
CCC1(c2cccc(O)c2)C2=C(CC(C)(C)CC2=O)Nc2ncccc21 (single isomer, unassigned) [Compound 1004B]	–	–	–	–	–	–	0.7 10^−6 cm/s	47 10^−6 cm/s	65	5.3 min	> 5000 nM	1000 to 5000 nM	–	–	–	–	–	–

The next lines start with the values.

MDCK Permeability (MDR1-MDCK); Mean; Papp(A-B) (10^−6 cm/s) ([1]; Table 3)	MDCK Permeability (MDR1-MDCK); Mean; Papp(B-A) (10^−6 cm/s) ([1]; Table 3)	MIDCK Permeability (MDR1-MDCK); Mean; P. Ratio(B-A/A-B) Efflux Ratio ([1]; Table 3)	Microsome Stability (Human) (DMPK_BIIB); Mean; in vitro t1/2 ([2]; Table 3)	IC50 [3, 5]	IC50 [4, 6]	MDCK Permeability (MDR1-MDCK); Mean; Papp(A-B) (10^−6 cm/s) ([1]; Table 4)	MDCK Permeability (MDR1-MDCK); Mean; Papp(B-A) (10^−6 cm/s) ([1]; Table 4)	MDCK Permeability (MDR1-MDCK); Mean; P. Ratio(B-A/A-B) Efflux Ratio ([1]; Table 4)	Microsome Stability (Human) (DMPK_BIIB); Mean; in vitro t1/2 ([2]; Table 4)	IC50 [3, 7]	IC50 [4, 8]	IC50 [3, 9]	IC50 [4, 10]	IC50 [3, 11]	IC50 [3, 12]	IC50 [4, 13]	IC50 [4, 14]	Compound
–	–	–	–	–	–	4.5 10^−6 cm/s	32 10^−6 cm/s	6.9	1.5 min	≤ 100 nM	≤ 100 nM	–	–	–	–	–	–	CCC1(c2cccc(-c3ccccn3)c2)C2=C(CC(C)(C)CC2=O)Nc2ncccc21 (single isomer, unassigned) [Compound 1016A]
–	–	–	–	–	–	6.6 10^−6 cm/s	22 10^−6 cm/s	3.3	4.6 min	≤ 100 nM	≤ 100 nM	1000 to 5000 nM	100 to 1000 nM	–	–	–	–	CCC1(c2cccc(-c3ccnc4c3CCCC4)c2)C2=C(CC(C)(C)CC2=O)Nc2ncccc21 (single isomer, unassigned) [Compound 1039B]
–	–	–	–	–	–	6.2 10^−6 cm/s	22 10^−6 cm/s	3.6	19 min	≤ 100 nM	≤ 100 nM	–	–	–	–	–	–	CCC1(c2cccc(-c3ccncc3C)c2)C2=C(CC(C)(C)CC2=O)Nc2ncc(F)cc21 (single isomer, unassigned) [Compound 1031B]
–	–	–	–	–	–	4.6 10^−6 cm/s	42 10^−6 cm/s	9.1	5.5 min	≤ 100 nM	≤ 100 nM	–	–	–	–	–	–	CCC1(c2cccc(-c3ccnn3C)c2)C2=C(CC(C)(C)CC2=O)Nc2ncc(F)cc21 (single isomer, unassigned) [Compound 1025A]
–	–	–	–	–	–	21 10^−6 cm/s	31 10^−6 cm/s	1.5	1.6 min	1000 to 5000 nM	1000 to 5000 nM	–	–	–	–	–	–	CCC1(c2ccccc2)C2=C(CC3(CCC3)CC2=O)Nc2ncc(F)cc21 (single isomer, unassigned) [Compound 1008B]
–	–	–	–	–	–	7.8 10^−6 cm/s	45 10^−6 cm/s	5.7	211 min	≤ 100 nM	≤ 100 nM	5000 to 20000 nM	1000 to 5000 nM	–	–	–	–	CCC1(c2ccccc2)C2=C(CC(C)(C)NC2=O)Nc2ncc(F)cc21 (single isomer, unassigned) [Compound 1007B]
